# According to paper PMC8066774, “Binding and Action of Triphenylphosphonium Analog of Chloramphenicol upon the Bacterial Ribosome” (Antibiotics, 2021):
# Columns and labels:
# [1] = test system: E. coli 70S ribosomes; test: Direct equilibrium binding of BODIPY-CAM measured by fluorescence anisotropy; conditions: BODIPY-CAM 4 nM, ribosomes 5 nM to 5 µM, 30 min; read-out: Apparent dissociation constant KDapp, direct equilibrium binding
# Procedure: The apparent dissociation constant of BODIPY-CAM (KDapp = 3.5 ± 0.9 µM) was determined by its direct equilibrium binding to E. coli 70S ribosomes (Figure S1B). A solution of BODIPY-CAM (4 nM) in the buffer containing 20 mM HEPES-KOH (pH 7.5), 50 mM NH4Cl, 10 mM Mg(CH3COO)2, 4 mM β-mercaptoethanol, and 0.05% Tween-20 was mixed with ribosomes in the range of concentrations from 5 nM to 5 μM, incubated for 30 min, and the values of fluorescence anisotropy were measured.
# Chen C.- W. et al. Supplementary Inform ation P age | 6of 10 […]
# Fi g u re S1. Binding of BODIPY-CAM to E. coli 70S ribosomes measu re d b y f lu orescence an isot rop y.
# (A) Chemical structure of fluorescent analog of chloramphenicol BODIPY-CAM. (B) Equilibrium binding isotherm of BODIPY-CAM to E. coli 70S ribosomes.Non -linear regression anal ysis of obt ained data yi elded an apparent dissociation constant of BO D IP Y -CAM ( KDapp = 3.5 ± 0.9 µM).
# (1 picture or pasted object on this page, not shown here)
# [2] = test system: E. coli BW25113 ΔtolC pDualRep2 reporter strain; test: In vivo dual-reporter (pDualrep2) assay on agar plate: Katushka2S / RFP induction and growth inhibition zone; type: cell-based; conditions: overnight 37 °C; for Induction of fluorescent reporters (Katushka2S = ribosome stalling; RFP = DNA damage/SOS response): drops of DMSO solutions (CAM-C4-TPP 20 mM, C4-TPP 20 mM, CAM 2 mM, CHL 2 mM, ERY 6.8 mM, LEV 69 nM)
# Source text: Since CAM-C4-TPP is a semi-synthetic analog of the PTC-targeting antibiotic CHL, we expected that, similar to CHL, CAM-C4-TPP would also bind and act upon the bacterial ribosome inhibiting protein synthesis. However, we could not rule out the possibility that the presence of the additional TPP group could alter the intracellular target of the CAM-C4-TPP molecule. To check whether protein synthesis remains the primary target of CAM-C4-TPP action in the bacterial cells, we used an E. coli-based in vivo reporter system that is designed for screening of inhibitors targeting either DNA replication or protein synthesis.
# (§1) Figure 2 CAM-C4-TPP is a potent inhibitor of protein synthesis both in vivo and in vitro. (A) In vivo testing of CAM-C4-TPP activity using E. coli BW25113 ΔtolC pDualRep2 reporter strains. The induction of the red fluorescent protein (RFP) expression (green halo around the inhibition zone) is triggered by DNA-damage, while the induction of Katushka2S protein (red halo) occurs in response to ribosome stalling. Levofloxacin (LEV), erythromycin (ERY), and chloramphenicol (CHL) are used as controls. This image is an overlay of the two images from the independent detections of RFP (Cy3 mode) or Ktushka2S (Cy5 mode) by ChemiDoc MP (Bio-Rad) with RFP fluorescence shown in green pseudocolor and Katushka2S fluorescence shown in red pseudocolor. (B,C) Competition-binding assay to test the displacement of fluorescently labeled BODIPY-CAM (B) or BODIPY-ERY (C) analogs from the E. coli 70S ribosomes in the presence of increasing concentrations of CAM (open diamonds), CHL (blue squares), or CAM-C4-TPP (red circles) measured by fluorescence anisotropy. All reactions were repeated three times. Error bars represent standard deviation. ND, no displacement. The resulting values for apparent dissociation constants (KDapp) are shown on each plot. (D) Inhibition of protein synthesis by increasing concentrations of CHL (blue squares) or CAM-C4-TPP (red circles) in the in vitro cell-free transcription-translation coupled system. The relative enzymatic activity of in vitro synthesized firefly luciferase is shown. Error-bars represent standard deviations of the mean of three independent measurements. TEXT PRINTED IN THE PICTURE: (D) CHL: IC50, μM: 2.8±0.5 | (D) CAM-C4-TPP: IC50, μM: 0.9±0.2 | (B) CAM: KDApp, μM: 420±240 | (B) CHL: KDApp, μM: 2.6±1.5 | (B) CAM-C4-TPP: KDApp, μM: 0.6±0.4 | (C) CAM: KDApp, μM: ND | (C) CHL: KDApp, μM: 2.8±0.5 | (C) CAM-C4-TPP: KDApp, μM: 0.61±0.07
# For the in vivo bioactivity test (Figure 2A), we used the reporter strain BW25113ΔtolC-pDualrep2 as described previously. Briefly, 1.5 µL of the solutions of CAM-C4-TPP (20 mM), C4-TPP (20 mM), CAM (2 mM), and 1 µL of the solutions of CHL (2 mM), erythromycin (ERY, 6.8 mM), and levofloxacin (LEV, 69 nM) in DMSO were applied onto the agar plate that already contained a lawn of the reporter strain. After overnight incubation at 37 °C, the plate was scanned by ChemiDoc (Bio-Rad, USA) using “Cy3-blot” mode for RFP fluorescence and “Cy5-blot” mode for Katushka2S fluorescence.
# [3] = test system: E. coli 70S ribosomes; test: Competition-binding assay, displacement of BODIPY-CAM measured by fluorescence anisotropy; conditions: for Kd: BODIPY-CAM 30 nM, ribosomes 2.9 µM, 25 °C, pH 7.5, n=3, read-out: Apparent dissociation constant KDapp, displacement of BODIPY-CAM
# Source text: (§2) Figure 2 CAM-C4-TPP is a potent inhibitor of protein synthesis both in vivo and in vitro. (A) In vivo testing of CAM-C4-TPP activity using E. coli BW25113 ΔtolC pDualRep2 reporter strains. The induction of the red fluorescent protein (RFP) expression (green halo around the inhibition zone) is triggered by DNA-damage, while the induction of Katushka2S protein (red halo) occurs in response to ribosome stalling. Levofloxacin (LEV), erythromycin (ERY), and chloramphenicol (CHL) are used as controls. This image is an overlay of the two images from the independent detections of RFP (Cy3 mode) or Ktushka2S (Cy5 mode) by ChemiDoc MP (Bio-Rad) with RFP fluorescence shown in green pseudocolor and Katushka2S fluorescence shown in red pseudocolor. (B,C) Competition-binding assay to test the displacement of fluorescently labeled BODIPY-CAM (B) or BODIPY-ERY (C) analogs from the E. coli 70S ribosomes in the presence of increasing concentrations of CAM (open diamonds), CHL (blue squares), or CAM-C4-TPP (red circles) measured by fluorescence anisotropy. […]
# The amphenicol moieties of CAM-C4-TPP, its parent CHL, and the fluorescent derivative BODIPY-CAM are expected to have identical ribosome binding sites and, therefore, these compounds are expected to compete with each other for binding to the ribosome. […] The apparent dissociation constants KDapp of CHL determined from the displacement of BODIPY-CAM (2.6 ± 1.5 µM) or BODIPY-ERY (2.8 ± 0.5 µM) are consistent with each other and with the previously published data, including data determined by direct [^14C]-CHL binding (2.3 µM [30]). […]
# (§3) Binding affinities of CHL analog CAM-C4-TPP, as well as other tested compounds, for the E. coli ribosome (Figure 2B,C) were analyzed by a competition-binding assay using fluorescently labeled BODIPY-CAM or BODIPY-ERY as described before. […]
# Solutions of CHL, CAM, CAM-C4-TPP, or C4-TPP in different concentration ranges were added to the pre-formed ribosome/BODIPY-CAM or ribosome/BODIPY-ERY complexes. The mixtures were incubated for 2 h until equilibrium was reached and the values of fluorescence anisotropy were measured. […]
# [4] = test system: ribosome stalling on rst1 and rst2 mRNAs; test: Toe-printing (primer extension inhibition) on rst1 and rst2 mRNAs in a cell-free translation system; type: biochemical; conditions: 30 µM compound
# Source text: The inhibition of protein synthesis by the PTC-targeting antibiotics depends on the amino-acid sequence of the nascent polypeptide chain and the identity of the incoming aminoacyl-tRNA in the A site of the ribosome. For example, CHL arrests translation only when alanine, and to a lesser extent, serine or threonine appear in the penultimate position (E site) of the growing polypeptide chain and only if there is no glycyl-tRNA in the A site of the ribosome. […] This method allows unambiguous identification of the drug-induced ribosome stalling site along the mRNA with a single nucleotide precision. This technique also allows for the determination of the context-specificity of drug action. A large set of ribosome-targeting antibiotics has been previously tested by toe-printing using rst1 or rst2 mRNAs as templates, because their sequences contain codons for almost all proteinogenic amino acids. Therefore, in order to be able to directly compare our results for CAM-C4-TPP with those for other antibiotics, we have chosen exactly the same experimental system.
# Nevertheless, in the presence of CAM-C4-TPP, a fraction of ribosomes manages to escape the start codon, continues translation, and stalls at later codons within the ORF (Figure 6A,B, lanes 3 and 6).
# Figure 6 CAM-C4-TPP is capable of arresting translation at the start codon. […]
# [5] = test system: E. coli 70S ribosomes; test: Competition-binding assay, displacement of BODIPY-ERY measured by fluorescence anisotropy; conditions: BODIPY-ERY 16 nM, ribosomes 50 nM, 25 °C, pH 7.5, n=3; read-out: Apparent dissociation constant KDapp, displacement of BODIPY-ERY
# Source text: as §2, with “anisotropy. All reactions were repeated three times. Error bars represent standard deviation. ND, no displacement.” for “anisotropy.”
# as §3
# [6] = test system: cell-free transcription-translation system based on the E. coli S30 extract; test: In vitro cell-free transcription-translation inhibition assay, firefly luciferase synthesis; type: biochemical; conditions: for IC50 / Concentration at which nearly complete inhibition of protein synthesis was observed: E. coli S30 extract; for IC50: 37 °C, 30 min, n=3; for Concentration at which nearly complete inhibition of protein synthesis was observed: firefly luciferase
# Source text: as §1
# To check whether the improved binding of CAM-C4-TPP to the ribosome correlates with stronger inhibition of translation, we tested its ability to interfere with in vitro protein synthesis. […] Thus, CAM-C4-TPP provides a promising foundation for future ribosome-targeting drug development.
# In vitro assessment of inhibition of synthesis of firefly luciferase by the tested compounds (Figure 2D) was accomplished as described previously. Briefly, the in vitro transcribed firefly luciferase mRNA was translated using E. coli S30 Extract System for Linear Templates (Promega, USA). Reactions containing 100 ng of mRNA and […] 0.1 mM of D-luciferin from the Steady-Glo Luciferase Assay System (Promega) were preincubated for 5 min with different concentrations (0.5 µM, 1 µM, 5 µM, 10 µM, 30 µM, 50 µM, 100 µM) of the tested compounds and carried out in 5-µL aliquots at 37 °C for 30 min. The activity of in vitro synthesized luciferase was measured by VICTOR X5 Multilabel Plate Reader (Perkin Elmer, USA) every 30 s. Calculations of the IC50 values for the tested compounds were carried out using GraphPad Prism software.
# [7] = target: ribosome; set-up: method as in PMID 4563072; conditions: read-out: Dissociation constant by direct [14C]-CHL binding; cited from earlier work
SMILES,Induction of fluorescent reporters (Katushka2S = ribosome stalling; RFP = DNA damage/SOS response) [2],Kd [3],Drug-induced ribosome stalling sites (toe-printing) [4],Kd [5],IC50 [6],Concentration at which nearly complete inhibition of protein synthesis was observed [6],other results
CC1=CC(C)=[N+]2C1=Cc1ccc(CCCCC(=O)NC(CO)C(O)c3ccc([N+](=O)[O-])cc3)n1[B-]2(F)F (centres unmarked) [BODIPY-CAM],–,–,–,–,–,–,Kd [1]: 3.5 ± 0.9 µM
"O=C(O)CCCC[P+](c1ccccc1)(c1ccccc1)c1ccccc1.[Br-] [C4-TPP, (4-Carboxybutyl)triphenyl-phosphonium bromide]",does not induce any of the two reporters,–,–,–,–,–,Bacterial cell growth inhibition (inhibition zone) ([2]; 1.5 µL of C4-TPP 20 mM or CAM 2 mM): inhibits bacterial cell growth
O=C(CCCC[P+](c1ccccc1)(c1ccccc1)c1ccccc1)N[C@H](CO)[C@H](O)c1ccc([N+](=O)[O-])cc1 [CAM-C4-TPP],"the expression of the fluorescent protein Katushka2S, but not of RFP, was strongly activated",0.6 ± 0.4 µM,causes a significant portion of the ribosomes to stall at the initiator codons,0.61 ± 0.07 µM,0.9 ± 0.2 µM,~ 10 µM,Fold higher affinity for the ribosome compared to parent CHL ([3]; both displacement assays (BODIPY-CAM and BODIPY-ERY)): ~ 5 fold; Fold better IC50 compared to CHL ([6]; in vitro translation of firefly luciferase): more than 3 fold
"O=C(N[C@H](CO)[C@H](O)c1ccc([N+](=O)[O-])cc1)C(Cl)Cl [CHL, chloramphenicol]",induce expression of far-red fluorescent protein reporter Katushka2S,2.6 ± 1.5 µM,predominant ribosome stalling when the 6th serine (Ser6) or 4th alanine (Ala4) residues appeared in the penultimate position,2.8 ± 0.5 µM,2.8 ± 0.5 µM,~ 10 µM,Kd [7]: 2.3 µM
CC[C@H]1OC(=O)[C@H](C)[C@@H](O[C@H]2C[C@@](C)(OC)[C@@H](O)[C@H](C)O2)[C@H](C)[C@@H](O[C@@H]2O[C@H](C)C[C@H](N(C)C)[C@H]2O)[C@](C)(O)C[C@@H](C)C(=O)[C@H](C)[C@@H](O)[C@]1(C)O [erythromycin],induce expression of far-red fluorescent protein reporter Katushka2S,–,–,–,–,–,–
C[C@H]1COc2c(N3CCN(C)CC3)c(F)cc3c(=O)c(C(=O)O)cn1c23 [levofloxacin],induce expression of Red Fluorescent Protein (RFP) reporter,–,–,–,–,–,–
